From ChEMBL document CHEMBL1124082, “Synthesis, intramolecular hydrogen bonding, and biochemical studies of clitocine, a naturally occurring exocyclic amino nucleoside” (J Med Chem, 1988)

How the values were obtained:
[1] = Inhibition of growth of human B lymphoblast derived W1-L2 cells; assay type: functional; conditions: WIL2, read-out: ID50 (the source's name)
Adenosine kinase [2] = target: T1, Adenosine kinase (Homo sapiens, UniProt P55263); test: Binding affinity towards adenosine kinase
Adenosine kinase [3] = target: T1, Adenosine kinase; test: Inhibition of adenosine kinase from undialyzed W1-L2 lysate (0-50 uM)
L1210 = test: In vitro inhibition of L1210 cells; assay type: functional; conditions: Mus musculus, read-out: ID50 (the source's name)

T1 sequence (P55263 whole entry): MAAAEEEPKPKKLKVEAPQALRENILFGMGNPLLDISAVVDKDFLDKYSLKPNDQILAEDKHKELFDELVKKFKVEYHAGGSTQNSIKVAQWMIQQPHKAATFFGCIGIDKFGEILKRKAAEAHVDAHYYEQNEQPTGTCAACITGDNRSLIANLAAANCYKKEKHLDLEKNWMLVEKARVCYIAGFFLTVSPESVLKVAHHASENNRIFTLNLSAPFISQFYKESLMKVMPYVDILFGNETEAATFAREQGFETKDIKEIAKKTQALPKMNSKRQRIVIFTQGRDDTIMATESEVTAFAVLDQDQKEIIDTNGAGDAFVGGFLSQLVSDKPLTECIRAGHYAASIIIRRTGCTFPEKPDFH

Nc1ncnc(N[C@@H]2O[C@H](CO)[C@@H](O)[C@H]2O)c1[N+](=O)[O-]
IC50 [1]: 0.03 µM
Ki (Adenosine kinase [2]): 0.3 µM
Ki (Adenosine kinase [3]): 3 µM
IC50 (L1210): 0.03 µM
